Here are results for twelve molecules from US20250059205A1, “Heterocyclic Compounds and Methods of Use” (AMGEN INC., priority 2021, published 2025).

Assay [1] deals with His-tagged KRAS G12D protein (Homo sapiens, UniProt P01116, G12D). The assay is described as follows: KRAS G12D TR-FRET Assay. The class given is binding. The protocol: Compounds of interest were prepared in a dose-response titration in DMSO, and 80 nL were added via Labcyte Echo to each well of a 384-well plate (Perkin Elmer 6008280). […] The plate was incubated for 30 minutes at room temperature. Biotinylated KRPep-2d substrate (Amgen) was diluted to 20 nM in Assay Buffer and 2 μL was added to all wells and incubated for 1 h at room temperature. Detection Reagent (0.4 nM LANCE Eu-W1024 Anti-6xHis (Perkin Elmer AD0401), 5 nM streptavidin-d2 (Cisbio 610SADLA)) was prepared in Assay Buffer, then 4 μL was added to the plate and incubated for 1 h at room temperature. Plates were read using PerkinElmer EnVision (ex: 320 nm, em1: 665 nm, em2: 615 nm) and em1/em2 data was used to generate curve fits using a 4-parameter logistic model to calculate IC50 values.
His-tagged KRAS G12D protein, sequence (P01116 1-188 isoform P01116-2 G12D): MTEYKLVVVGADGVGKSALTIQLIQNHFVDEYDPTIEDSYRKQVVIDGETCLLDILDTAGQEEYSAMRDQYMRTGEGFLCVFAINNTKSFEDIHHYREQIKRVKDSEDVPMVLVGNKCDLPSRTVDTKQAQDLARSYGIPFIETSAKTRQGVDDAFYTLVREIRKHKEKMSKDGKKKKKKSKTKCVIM
On the technique in general: In TR-FRET formats the signal depends on donor and acceptor labels being close together.

For assay [2], the target named is GDP-bound KRAS protein (aa 1-169), containing both G12D and C118A amino acid substitutions (Homo sapiens, UniProt P01116, C118A/G12D). Nature of the assay: KRAS G12D Coupled Nucleotide Exchange Assay. The class given is biochemical. Particulars: 2 h compound pre-incubation. As for the experimental part:
Following compound pre-incubation, purified SOS protein (aa 564-1049) and GTP (Roche 10106399001) were added to the assay wells and incubated for an additional 30 min. […] The assay plates were then read on a PerkinElmer EnVision Multilabel Reader, using AlphaScreen® technology, and data were analyzed using a 4-parameter logistic model to calculate IC50 values.

The subject of assay [3] is Phosphorylation of ERK1/2 in A-427 cells. The assay is described as follows: Phospho-ERK1/2 MSD Assay (A-427 cells). Format: cell-based. Particulars: Homo sapiens, A-427, 2 h, 2 h treatment, read-out: p-ERK (A427 cells) IC50. As for the experimental part: (§1) A-427 (ATCC® HTB-53™) cells were cultured in RPMI 1640 Medium (ThermoFisher Scientific 11875093) containing 10% fetal bovine serum (ThermoFisher Scientific 16000044) and 1× penicillin-streptomycin-glutamine (ThermoFisher Scientific 10378016). Sixteen hours prior to compound treatment, A-427 cells were seeded in 96-well cell culture plates at a density of 25,000 cells/well and incubated at 37° C., 5% CO2. A compound dose-response titration was diluted in growth media, added to appropriate wells of a cell culture plate, and then incubated at 37° C., 5% CO2 for 2 h. Following compound treatment, cells were washed with ice-cold Dulbecco's phosphate-buffered saline, no Ca^2+ or Mg^2+ (ThermoFisher Scientific 14190144), and then lysed in RIPA buffer (50 mM Tris-HCl pH 7.5, 1% Igepal, 0.5% sodium deoxycholate, 150 mM NaCl, and 0.5% sodium dodecyl sulfate) containing protease inhibitors (Roche 4693132001) and phosphatase inhibitors (Roche 4906837001). Phosphorylation of ERK1/2 in compound-treated lysates was assayed using Phospho-ERK1/2 Whole Cell Lysate kits (Meso Scale Discovery K151DWD) according to the manufacturer's protocol. Assay plates were read on a Meso Scale Discovery Sector Imager 6000, and data were analyzed using a 4-parameter logistic model to calculate IC50 values.

Assay [4] deals with Phosphorylation of ERK1/2 in AsPC-1 cells. Nature of the assay: Phospho-ERK1/2 MSD Assay (AsPC-1 cells). Format: cell-based. Particulars: Homo sapiens, ASPC1, 2 h, 2 hours treatment, read-out: p-ERK (AsPC-1 cells) IC50. The protocol:
as §1, with “AsPC-1” for “A-427”, “CRL-1682™)” for “HTB-53™)”, “hours.” for “h.”

Molecules are shown by their SMILES. Bounds are passed on as bounds.

Usually IC50 stands for the concentration needed to halve the response being measured.

GDP-bound KRAS protein (aa 1-169), containing both G12D and C118A amino acid substitutions, sequence (P01116 1-169 isoform P01116-2 G12D/C118A): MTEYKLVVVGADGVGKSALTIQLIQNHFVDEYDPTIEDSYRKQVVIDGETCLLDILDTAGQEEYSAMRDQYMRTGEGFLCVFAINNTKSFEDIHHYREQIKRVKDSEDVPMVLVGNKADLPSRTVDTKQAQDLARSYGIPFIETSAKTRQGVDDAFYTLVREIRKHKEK

With `Nc1ccc(C2CC2)c(-c2c(F)cc3c(N4C[C@H]5CC[C@@H](C4)N5)nc(OC[C@@]45CCCN4C[C@H](F)C5)nc3c2F)c1` [Example 114, 3-(4-((1R,5S)-3,8-diazabicyclo[3.2.1]octan-3-yl)-6,8-difluoro-2-(((2R,7aS)-2-fluorotetrahydro-1H-pyrrolizin-7a(5H)-yl)methoxy)quinazolin-7-yl)-4-cyclopropylaniline], the values for the IC50 in assay [1], in assay [3] and in assay [4] were 16 nM, 985 nM and 1420 nM, respectively. Also, in assay [2], the “Avg 2 h Coupled Exchange IC50” value came out at 4 nM.
Take `CN1C[C@H](F)C[C@H]1COc1nc(N2[C@@H]3CC[C@H]2CNC3)c2cc(F)c(-c3cc(O)cc4ccccc34)c(F)c2n1` [Example 17, 4-(4-((1R,5S)-3,8-diazabicyclo[3.2. 1]octan-8-yl)-6,8-difluoro-2-(((2S,4R)-4-fluoro-1-methylpyrrolidin-2-yl)methoxy)quinazolin-7-yl)naphthalen-2-ol]: the IC50 turned out to be 26 nM in assay [1], 1290 nM in assay [3] and 949 nM in assay [4]. The “Avg 2 h Coupled Exchange IC50” value in assay [2] turned out to be 17 nM.
With `Oc1cc(-c2ccc3c(N4[C@@H]5CC[C@H]4CNC5)nc(OC[C@@]45CCCN4C[C@H](F)C5)nc3c2)c2ccccc2c1` [Example 11, 4-(4-((1R,5S)-3,8-diazabicyclo[3.2. 1]octan-8-yl)-2-(((2R,7aS)-2-fluorotetrahydro-1H-pyrrolizin-7a(5H)-yl)methoxy)quinazolin-7-yl)naphthalen-2-ol], the IC50 stood at 21 nM in assay [1], 2510 nM in assay [3] and 1530 nM in assay [4]. Moreover, the “Avg 2 h Coupled Exchange IC50” value in assay [2] was 9 nM.
As for `CCc1c(F)ccc2cc(O)cc(-c3c(F)cc4c(N5C[C@H]6CC[C@@H](C5)N6)nc(OCC(C)(O)CC)nc4c3F)c12` (stereo partly drawn) [Example 214, 4-(4-((1R,5S)-3,8-diazabicyclo[3.2.1]octan-3-yl)-6,8-difluoro-2-(2-hydroxy-2-methylbutoxy)quinazolin-7-yl)-5-ethyl-6-fluoronaphthalen-2-ol], the results for the IC50 in assay [1], in assay [3] and in assay [4] were 13 nM, 1700 nM and 1210 nM, respectively. The “Avg 2 h Coupled Exchange IC50” value in assay [2] is 5 nM.
Turning to `Cc1c(-c2cc(O)cc3ccccc23)ccc2c(N3[C@@H]4CC[C@H]3CNC4)nc(OC[C@@]34CCCN3C[C@H](F)C4)nc12` [Example 34, 4-(4-((1R,5S)-3,8-diazabicyclo[3.2. 1]octan-8-yl)-2-(((2R,7aS)-2-fluorotetrahydro-1H-pyrrolizin-7a(5H)-yl)methoxy)-8-methylquinazolin-7-yl)naphthalen-2-ol], the IC50 was 47 nM in assay [1], 2570 nM in assay [3] and 2980 nM in assay [4]. Further, the “Avg 2 h Coupled Exchange IC50” value in assay [2] is 22 nM.
With `C#Cc1c(F)ccc2cc(O)cc(-c3ccc4c(N5[C@@H]6CC[C@H]5CNC6)nc(OC[C@@]56CCCN5C[C@H](F)C6)nc4c3F)c12` [Example 187, 4-(4-((1R,5S)-3,8-diazabicyclo[3.2.1]octan-8-yl)-8-fluoro-2-(((2R,7aS)-2-fluorotetrahydro-1H-pyrrolizin-7a(5H)-yl)methoxy)quinazolin-7-yl)-5-ethynyl-6-fluoronaphthalen-2-ol], the IC50 in assay [1] was found to be 2 nM; in assay [3], 5 nM; in assay [4], 16 nM. In addition, in assay [2], the “Avg 2 h Coupled Exchange IC50” value was determined as 1 nM.
As to `CCc1c(F)ccc2cc(O)cc(-c3c(F)cc4c(N5C[C@H]6CC[C@@H](C5)N6)nc(OCC(C)(C)O)nc4c3F)c12` [Example 65, 4-(4-((1R,5S)-3,8-diazabicyclo[3.2. 1]octan-3-yl)-6,8-difluoro-2-(2-hydroxy-2-methylpropoxy)quinazolin-7-yl)-5-ethyl-6-fluoronaphthalen-2-ol], the IC50 turned out to be 7 nM in assay [1], 699 nM in assay [3] and 547 nM in assay [4]. In addition, in assay [2], the “Avg 2 h Coupled Exchange IC50” value was determined as 8 nM.
For `Cc1c(-c2cc(O)cc3ccccc23)ccc2c(N3CC4CCC(C3)N4)nc(OCC34CCCN3C[C@H](F)C4)nc12` (stereo in doubt) [Example 32, 4-(4-((1R,5S)-3,8-diazabicyclo[3.2. 1]octan-3-yl)-2-(((2R,7aS)-2-fluorotetrahydro-1H-pyrrolizin-7a(5H)-yl)methoxy)-8-methylquinazolin-7-yl)naphthalen-2-ol], the IC50 in assay [1] is 5 nM; in assay [3] it was 341 nM; in assay [4], 712 nM. Also, the “Avg 2 h Coupled Exchange IC50” value in assay [2] worked out at 2 nM.
With `CCc1c(F)ccc2cc(O)cc(-c3c(F)cc4c(N5C[C@H]6CC[C@@H](C5)N6)nc(OCC5(C)CCC(=O)O5)nc4c3F)c12` (stereo partly drawn) [Example 212, 5-(((4-((1R,5S)-3,8-Diazabicyclo[3.2.1]octan-3-yl)-7-(8-ethyl-7-fluoro-3-hydroxynaphthalen-1-yl)-6,8-difluoroquinazolin-2-yl)oxy)methyl)-5-methyldihydrofuran-2(3H)-one], the IC50 was 2 nM in assay [1], 514 nM in assay [3] and 784 nM in assay [4]. The “Avg 2 h Coupled Exchange IC50” value in assay [2] was determined as 3 nM.
Regarding `CCc1c(F)ccc2cc(O)cc(-c3c(F)cc4c(N5C[C@@H]6CC[C@H]5CN6)nc(OC[C@@H]5C[C@@H](F)CN5C)nc4c3F)c12` [Example 94, 4-(4-((1S,4S)-2,5-diazabicyclo[2.2. 2]octan-2-yl)-6,8-difluoro-2-(((2S,4R)-4-fluoro-1-methylpyrrolidin-2-yl)methoxy)quinazolin-7-yl)-5-ethyl-6-fluoronaphthalen-2-ol], the half-maximal inhibitory concentration (IC50) in assay [1] worked out at 5 nM; in assay [3] it was 110 nM; in assay [4], 152 nM. In addition, the “Avg 2 h Coupled Exchange IC50” value in assay [2] amounted to 4 nM.
For the molecule `N#Cc1ccc2[nH]ncc2c1-c1ccc2c(N3C[C@H]4CC[C@@H](C3)N4)nc(OC[C@@]34CCCN3C[C@H](F)C4)nc2c1F` [Example 197, 4-(4-((1R,5S)-3,8-Diazabicyclo[3.2.1]octan-3-yl)-8-fluoro-2-(((2R,7aS)-2-fluorotetrahydro-1H-pyrrolizin-7a(5H)-yl)methoxy)quinazolin-7-yl)-1H-indazole-5-carbonitrile], the IC50 in assay [1] was 108 nM; in assay [3], 4030 nM; in assay [4], greater than 10000 nM. The “Avg 2 h Coupled Exchange IC50” value in assay [2] was 54 nM.
As to `Oc1cc(-c2ccc3c(N4[C@@H]5CC[C@H]4CNC5)nc(OC[C@@]45CCCN4C[C@H](F)C5)nc3c2F)c2ccccc2c1` [Example 1, 4-(4-((1R,5S)-3,8-Diazabicyclo[3.2.1]octan-8-yl)-8-fluoro-2-(((2R,7aS)-2-fluorotetrahydro-1H-pyrrolizin-7a(5H)-yl)methoxy)quinazolin-7-yl)naphthalen-2-ol], the IC50 came to 4 nM in assay [1], 171 nM in assay [3] and 420 nM in assay [4]. In assay [2], the “Avg 2 h Coupled Exchange IC50” value amounted to 3 nM.
